GI50 and TGI data for two compounds are collected here from PubChem BioAssay (NCI).

Test systems include RPMI-8226 leukemia; COLO 205 colon; OVCAR-4 ovarian; K-562 leukemia; UO-31 renal; HT29 colon; SR leukemia; OVCAR-5 ovarian; SF-268 CNS; MOLT-4 leukemia.
Assay in all cases: NCI-60 cell line screen, 48 h

SMILES strings stand for the structures.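 Values below derive from 48-hour exposures of cells grown in 96-well plates, with endpoints linearly interpolated between the two concentrations bracketing the appropriate inhibition level. GI50 = concentration required for 50% inhibition of growth. TGI denotes the concentration required for complete inhibition of growth.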 A value given as a limit tells only on which side of the number the result lay.

For `COCCN(Cc1ccc(F)cc1)c1ccc(CO)c(Cl)c1`, the GI50 is 17.6 µM in the test on RPMI-8226 leukemia; 11.1 µM with COLO 205 colon; 1.82 µM in the test on OVCAR-4 ovarian; 10 µM in the test on K-562 leukemia; 15.5 µM with UO-31 renal; 22.4 µM with HT29 colon. The GI50 with SR leukemia is 47.9 µM; in the test on OVCAR-5 ovarian it was 0.431 µM; in the test on SF-268 CNS it was 50.6 µM; in the test with MOLT-4 leukemia, 34 µM. Moreover, the TGI is more than 95.9 µM in the test with RPMI-8226 leukemia; 31.8 µM in the test on COLO 205 colon; 23 µM in the test with OVCAR-4 ovarian; more than 100 µM in the test with K-562 leukemia; more than 100 µM in the test with UO-31 renal; more than 100 µM with HT29 colon. Further, the TGI with SR leukemia was more than 100 µM; in the test on OVCAR-5 ovarian, 2.52 µM; in the test on SF-268 CNS, more than 100 µM; in the test on MOLT-4 leukemia, more than 78.9 µM.

Regarding `CCO/C=C1\SC(=S)N(c2ccc(OCC)cc2)C1=O`, the TGI in the test with RPMI-8226 leukemia, with COLO 205 colon, in the test with OVCAR-4 ovarian, in the test on K-562 leukemia, in the test with UO-31 renal and in the test with HT29 colon was more than 100 µM each time. In addition, the TGI with SR leukemia, in the test with OVCAR-5 ovarian, in the test on SF-268 CNS and in the test on MOLT-4 leukemia was more than 100 µM throughout.
